Source: US20100034766A1, “Malodor Counteracting Compositions” (Givaudan SA, priority 2006, published 2010)
Where a name gives a salt, the structure may show the parent alone.

What was measured:
[1] = Malodor reduction potential: headspace GC/MS determination of hexyl amine remaining; details: for % Reduction of hexyl amine: 10 ul hexyl amine
Experimental: A 1 liter glass headspace collection jar had placed inside it a 25 ml stoppered glass container which contained 0.5 g of a test compound/mixture of compounds as indicated in Table 3. 10 ul of hexyl amine as a representative malodor was injected into the headspace jar. This was left for 15 minutes at 25° C. to equilibrate. One ml/minute of the headspace was drawn for one minute through a Tenax™ headspace trap. The trap was removed and analyzed to determine the initial concentration of the malodor. The glass stopper was removed from the container and the test component and the malodor were left in contact for 60 minutes at 25° C. One ml/minute of the headspace was drawn for one minute through a Tenax™ headspace trap to determine the amount of malodor remaining. The Tenax traps were thermally desorbed into an Agilent 6890 GC/MS to analyze the quantity of hexyl amine. The results are shown in Table 3 below: Following the same procedure described in Example 1, compounds according to formula (B) were mixed with an equal amount of citronellyl methylcrotonate. 0.5 g of the resulting mixture was tested against 10 ul hexyl amine as a representative malodor. Following the same procedure described in Example 1,5-(1-(3,3-dimethyl-cyclohexyl)ethoxy)-5-methylhexan-2-one (compound 10) was mixed with an equal amount of compounds of formula (A). 0.5 g of the resulting mixture was tested against 10 ul hexyl amine as a representative malodor.

[2] = Sensory test of axilla malodor reduction on cotton pads, expert panel, Labeled Magnitude Scale; details: Example 4, Table 6; 0.4 g of 10% ethanol solution of test mixture on pad with 0.5 g of 1% synthetic axilla malodor; expert panel of 5, LMS
Experimental: Test mixtures of a compound of formula (A) and a compound of formula (B) in the ratio as given in Table 6 (10% ethanol solution) of each was prepared. 0.5 g of a 1% ethanol solution of synthetic axilla malodor was placed onto cotton pads. 0.4 g of the ethanol solution of the test mixtures, respectively, was placed on each axilla malodor treated cotton pad. One pad was left untreated as the control. Each pad was allowed to dry for 15 minutes. The test cotton pads were randomized, and an expert panel of 5 was used to determine the intensity of the malodor. Each panelist was asked to check a box that represented the strength of the axilla malodor using a Labeled Magnitude Scale (LMS) (Barry G. Green, Pamela Dalton, Beverly Cowart, Greg Shaffer, Krystyna Rankin and Jennifer Higgins. Evaluating the Labeled Magnitude Scale for Measuring Sensations of Taste and Smell. Chemical Senses. Vol. 21, pp 323-334, 1996).
The % reduction of malodor was calculated by:
% Reduction=(Mean LMS Control−Mean LMS Test)/Mean LMS Control
A Givaudan fragrance composition containing solvent dipropylene glycol at 20% (Composition A) and a fragrance composition (Composition B) wherein 10% dipropylene glycol are replaced by 10% of a mixture of compound 4 and geranyl:crotonate (1:9); were compared for MOC efficacy using the sensory test described in Example 4.

[3] = Example 1, Table 3, 0.5 g test compound/mixture, 60 minutes contact at 25° C., headspace
[4] = Example 3, Table 5, compound 10 mixed with equal amount of formula (A) compounds, 0.5 g

Row | Compound | effect on the effectiveness of the class A compound (hexyl amine reduction) ([1]; compound 4 in combination with a class A compound, Table 3) | % Reduction of hexyl amine [1, 3] | % Reduction of hexyl amine [1, 4] | % Reduction of hexyl amine ([1]; Example 2, Table 4, formula (B) compounds mixed with equal amount of citronellyl methylcrotonate, 0.5 g) | % Reduction of axilla malodor [2]
1 | CC(OC(C)(C)COC(=O)C1CC1)C1CCCC(C)(C)C1 (stereo not drawn) [compound 4, cyclopropanecarboxylic acid 2-[1-(3,3-dimethylcyclohexyl)ethoxy]-2-methylpropyl ester] | significantly increases the effectiveness | – | – | – | –
2 | CCCCCCOC(=O)/C=C/C(=O)OCCCCCC [dihexyl fumarate] | – | 68.7% | 78.1% | – | –
3 | C/C=C/C(=O)OC/C=C(\C)CCC=C(C)C [geranyl crotonate] | – | 64.7% | 71.0% | – | –
4 | O=C(C=Cc1ccccc1)OCc1ccccc1 [benzyl cinnamate] | – | 23.5% | 62.1% | – | –
5 | CCCCC(CC)COC(=O)C=Cc1ccc(OC)cc1 (stereo not drawn) [Octyl methyl cinnamate, 2-ethyl-hexyl-para-methoxy-cinnamate] | – | 54.1% | 58.7% | – | –
6 | CC(C)=CCCC(C)CCOC(=O)C=C(C)C (stereo not drawn) [citronellyl methylcrotonate, 3,7-dimethyloct-6-enyl 3-methylbut-2-enoate] | – | 53.6% | – | 61.3% | 51.0%
